In patent US20170348337A1, “MULTIFUNCTIONAL MEMBRANE-ACTIVE AMINOGLYCOSIDE-PEPTIDE CONJUGATES” (priority 2014, published 2017):
Converted amounts (≈) assume the structure as drawn. “Also recorded” adds a separate entry of the source. Read-outs that look alike come from different tables or passages of the source.

Columns and labels:
[1] = test system: bioluminescent Staphylococcus aureus; test: in vivo murine implantation (implant infection) model; parameters: species or system lysEGFP mice; conditions: PMMA-coated titanium disks, subcutaneous; throughout 5 days; p<0.05
Method: Methods: Survival surgery was performed in which circular orthopedic-grade titanium disks were implanted subcutaneously on the backs of 25 lysEGFP mice. Disks were coated in poly-methyl-methacrylate (PMMA) cement mixed with either Pentobra, Tobramycin, or no antibiotic (control). The disks were inoculated with 1×10^7 colony-forming units (CFU) of bioluminescent Staphylococcus aureus. Bacterial burden and neutrophil inflammation were followed via bioluminescent and fluorescent imaging, respectively, on post-operative days (POD) 0, 1, 3, and 5. Implants and surrounding tissue were subsequently removed and cultured. Statistical assessment of data was performed via ANOVA analysis.

[2] = test system: P. acnes laboratory strain ATCC 6919; test: P. acnes CFU assay, laboratory strain; format: cell-based, Propionibacterium acnes
[3] = synchrotron small angle X-ray scattering (SAXS) of model membranes; conditions: DOPE/DOPS=80/20; Pentobra to lipid 1/80; tobramycin to lipid 1/20 or 1/40
Method: Briefly, DOPE and DOPS lyophilized lipids from Avanti Polar lipids were used without further purification. SUVs were prepared by sonication. Stock solutions of DOPE and DOPS were prepared in chloroform at ˜20 mg/g. Mixtures of these lipids were prepared at molar ratios, so DOPE/DOPS=80/20 corresponded to a 4:1 lipid ratio. Chloroform was evaporated under N2, and the mixtures were dried further by overnight desiccation under vacuum. The dried lipids were resuspended the next day in 100 mM NaCl. Solutions were incubated at 37° C. for 18 h and then sonicated until clear. SUVs were obtained by extrusion (0.2 μm pore Nucleopore filter).
Pentobra and tobramycin stock solutions were prepared by dissolving the molecules in 100 mM NaCl. Lipids were thoroughly mixed with Pentobra/tobramycin at specific molecule to lipid ratios (P/L) in 100 mM NaCl. Sample solutions were hermetically sealed in quartz-glass capillaries (Hilgenberg GmbH, Mark-tubes, code no: 4017515). Synchrotron SAXS experiments were conducted at the Stanford Synchrotron Radiation Laboratory (BL 4-2). Monochromatic X-rays with 9 keV energy were used. Scattering was collected using a Rayonix MX225-HE detector (pixel size 73.2 μm). Samples were also measured at the California NanoSystems Institute (CNSI) at UCLA. […] Identical samples were prepared and measured at different times and multiple sources to ensure consistency between samples. […]

[4] = aminoglycosides; cited from earlier work
[5] = test system: Vancomycin-Sensitive Enterococci (VSE); test: organism not typed; format: cell-based; conditions: read-out: MIC
Description: Pentobra was screened against a broad panel of microbial pathogens, including strains of E. coli, MRSA, Klebsiella (Kleb), Acinetobacter (AcB), Vancomycin-Sensitive Enterococci (VSE) and Vancomycin-Resistant Enterococci (VRE), and specifically including E. faecalis samples. […] The experimenter reported the minimum inhibitory concentration (MIC) in mass units per unit volume (μg/mL) for each compound, and MIC data were converted into molar concentrations (μM) due to the large difference between the molecular weight of tobramycin (467.5 g/mol) and Pentobra (2277 g/mol).

[6] = test system: E. coli; test: antimicrobial activity (MIC) of P-L-A conjugates; format: cell-based
[7] = test system: IL-6, IL-8, TNF-α and IL-12p40 in human monocytes; test: cytokine ELISA in P. acnes-activated monocytes; format: cell-based; conditions: 24 hrs co-treatment
Method: Peripheral blood mononuclear cells (PBMCs) were isolated from whole blood of normal healthy donors as approved by the Institutional Review Board at UCLA using Ficoll-Paque gradients (GE Healthcare, Piscataway, N.J.) and plated onto six-well tissue culture plates (20×10^6-30×10^6 per well) for 2 hours in RPMI 1640 medium (Invitrogen Life Technologies, Carlsbad, Calif.) supplemented with 1% fetal calf serum (Omega Scientific, Tarzana, Calif.). Nonadherent cells were removed by rigorously washing three times with RPMI. Adherent monocytes were stimulated (co-treated) with media or P. acnes in the presence of tobramycin or Pentobra in 10% fetal calf serum. P. acnes was used at an MOI of 0.5 and cells were cultured for 24 hours at 37° C.
IL-6, IL-8, Tumor necrosis factor alpha (TNF-α) and IL-12p40 levels in culture supernatants were measured by ELISA following the manufacturer's recommendations (Invitrogen). Samples were assayed in triplicates. Results are expressed as mean±SD of at least three independent experiments, with monocytes obtained from three independent donors.
Monocytes were cultured and evaluated for cytokine and chemokine expression by ELISA and real time PCR after 24 hrs.

## NC[C@H]1O[C@H](O[C@H]2[C@H](O)[C@@H](O[C@H]3O[C@H](CO)[C@@H](O)[C@H](N)[C@H]3O)[C@H](N)C[C@@H]2N)[C@H](N)C[C@@H]1O [tobramycin]
[1]
  bacterial bioluminescent signal compared to control group: significantly lower bacterial bioluminescent signal
[2]
  killing activity: not strongly bactericidal
[2]; 52 μM, 3 h
  reduction in CFU: less than ten
[3]
  induced membrane curvature / phase (negative Gaussian curvature, NGC): induced NGC was not observed; also recorded: did not induce NGC or negative mean curvature
[4]
  octanol→water partition coefficient Log P: −3.41
[5]; isolate S4895552, VSE, LZD-R
  MIC: > 274 µM
[5]; isolate W7171143,VSE
  MIC: 68 µM (≈ 31.8 µg/mL)
[5]; isolate W7214342,VSE
  MIC: > 274 µM
[5]; isolate X4540299, VSE
  MIC: 34 µM (≈ 15.9 µg/mL)
[6]
  MIC (μM) E. coli (mid-log): 6.25 μM
[7]
  change in IL-6, IL-8, TNF-α and IL-12p40 cytokine production: no significant change
